This is an account of results in patent publication US20100222396A1 (Novartis AG, priority 2009, published 2010).

A value given as a limit tells only on which side of the number the result lay.

For test [1], the target named is T1, human orexin 1 receptor (hOx1R) (Homo sapiens, UniProt O43613).
T1 construct: expressed in transfected cells
T1 sequence (O43613 1-425): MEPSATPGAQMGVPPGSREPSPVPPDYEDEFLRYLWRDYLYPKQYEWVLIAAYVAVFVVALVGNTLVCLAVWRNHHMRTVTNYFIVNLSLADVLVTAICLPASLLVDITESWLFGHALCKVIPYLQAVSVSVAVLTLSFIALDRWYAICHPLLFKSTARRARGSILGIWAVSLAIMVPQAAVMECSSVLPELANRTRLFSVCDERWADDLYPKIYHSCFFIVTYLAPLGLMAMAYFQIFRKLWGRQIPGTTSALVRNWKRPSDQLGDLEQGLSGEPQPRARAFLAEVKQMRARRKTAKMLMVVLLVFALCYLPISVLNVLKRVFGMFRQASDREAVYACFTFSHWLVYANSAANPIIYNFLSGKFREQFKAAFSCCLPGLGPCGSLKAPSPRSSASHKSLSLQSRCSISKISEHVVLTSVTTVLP
Put plainly: Calcium accumulation in cells (FLIPR), antagonism of orexin A, hOx1R. It counts as cell-based. Conditions: for Kd: cells expressing human orexin 1 receptor, IC50 vs orexin A converted by Cheng and Prusoff correction; for inhibition at 10 µM: measured at a concentration of 10 μM of compound (cells marked ^a). Summed up:
(§1)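 Serum-starved receptor-expressing cells were loaded with Fluo-4-AM (2 μM) plus probenecid (0.1 mM) in HEPES buffer, pH 7.4, with 1% BSA, and Ca2+ fluorescence was read on FLIPR. Compounds (10^−9–10^−5 M) were added first, and orexin A was added one hour later to measure antagonism.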

Test [2] has as its target T2, human orexin 2 receptor (hOx2R) (Homo sapiens, UniProt O43614).
T2 construct: expressed in transfected cells
T2 sequence (O43614 1-444): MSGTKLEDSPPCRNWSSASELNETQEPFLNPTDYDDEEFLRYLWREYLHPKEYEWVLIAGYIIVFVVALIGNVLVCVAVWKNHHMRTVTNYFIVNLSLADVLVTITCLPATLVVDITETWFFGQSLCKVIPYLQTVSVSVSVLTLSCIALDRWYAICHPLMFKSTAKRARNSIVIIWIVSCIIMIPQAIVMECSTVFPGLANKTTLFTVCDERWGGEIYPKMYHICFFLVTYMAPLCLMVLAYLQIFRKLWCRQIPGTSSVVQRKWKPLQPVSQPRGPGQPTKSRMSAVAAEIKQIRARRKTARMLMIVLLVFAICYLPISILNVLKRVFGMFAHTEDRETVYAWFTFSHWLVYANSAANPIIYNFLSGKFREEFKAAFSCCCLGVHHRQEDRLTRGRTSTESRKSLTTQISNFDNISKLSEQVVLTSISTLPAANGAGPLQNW
Briefly: Calcium accumulation in cells (FLIPR), antagonism of orexin A, hOx2R. The note with it: cells expressing human orexin 2 receptor; IC50 vs orexin A converted by Cheng and Prusoff correction. In kind it is cell-based. An outline of the steps: as §1

For test [3], the target named is T1, human orexin 1 receptor (hOx1R). Put plainly: Radioligand binding assay ([125I]orexin A competition), hOx1R. The note with it: CHO or HEK cell membranes, 1 h room temperature. An outline of the steps:
(§2)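 Membranes from CHO or HEK cells expressing the human receptor, incubated 1 h at room temperature with […] [125I]orexin A and compound in HEPES pH 7.5 buffer with BSA, MgCl2, CaCl2 and tween.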

The target in test [4] is T2, human orexin 2 receptor (hOx2R). Put plainly: Radioligand binding assay ([125I]orexin A competition), hOx2R. Conditions: CHO or HEK cell membranes, 1 h room temperature. Summed up:
as §2

On to `CN(C(=O)c1ccc(C(F)(F)F)cc1)[C@H](CCNC(=O)c1ccccn1)Cc1ccccc1` [Example 73, Pyridine-2-carboxylic acid {(S)-3-[methyl-(4-trifluoromethyl-benzoyl)-amino]-4-phenyl-butyl}-amide], for which the Kd in test [1] is 1920 nM; in test [2], 1310 nM; in test [3], greater than 10000 nM; in test [4], greater than 10000 nM.
`CN1CCc2cc(C(=O)N(C)[C@H](CCNC(=O)c3ccccn3)Cc3ccccc3)ccc21` [Example 55, 1-Methyl-2,3-dihydro-1H-indole-5-carboxylic acid {(S)-1-benzyl-3-[(pyridine-2-carbonyl)-amino]-propyl}-methyl-amide]: the Kd in test [1] was determined as 1640 nM; in test [2] it was 1290 nM; in test [3], 75 nM; in test [4], 1760 nM.
Take `CN(C(=O)c1ccc2ccccc2c1)[C@H](CCNC(=O)c1ccccn1)Cc1ccc(F)cc1` [Example 58, Pyridine-2-carboxylic acid {(S)-4-(4-fluoro-phenyl)-3-[methyl-(naphthalene-2-carbonyl)-amino]-butyl}-amide]: the inhibition at 10 µM in test [1] turned out to be 1%. Also, the Kd in test [2] came to 1060 nM; in test [3], 2300 nM; in test [4], 3430 nM.
Take `CN(C(=O)c1cccc(Br)c1)[C@H](CCNC(=O)c1nc2ccccc2n1C)Cc1ccccc1` [Example 102, 1-Methyl-1H-benzoimidazole-2-carboxylic acid {(S)-3-[(3-bromo-benzoyl)-methyl-amino]-4-phenyl-butyl}-amide]: the Kd in test [1] stood at 18 nM; in test [2], 1 nM; in test [3], 28 nM; in test [4], 2 nM.
In the same order, the values of `CN(C(=O)c1ccc2ccccc2c1)[C@H](CCNC(=O)c1nc2ccccc2n1C)Cc1ccc(Cl)cc1` [Example 50, 1-Methyl-1H-benzoimidazole-2-carboxylic acid {(S)-4-(4-chloro-phenyl)-3-[methyl-(naphthalene-2-carbonyl)-amino]-butyl}-amide] are 32 nM, 59 nM, 783 nM and 1110 nM.
The like results for `CN(C(=O)c1ccc2[nH]ccc2c1)[C@H](CCNC(=O)c1nc2ccccc2n1C)Cc1ccccc1` [Example 81, 1-Methyl-1H-benzoimidazole-2-carboxylic acid {(S)-3-[(1H-indole-5-carbonyl)-methyl-amino]-4-phenyl-butyl}-amide] were, in that order, 12 nM, 13 nM, 6 nM and 23 nM.
Regarding `CN(C(=O)c1ccccc1)[C@H](CCNC(=O)c1cccc2c1OCO2)Cc1ccccc1` [Example 32, Benzo[1,3]dioxole-4-carboxylic acid [(S)-3-(benzoyl-methyl-amino)-4-phenyl-butyl]-amide], the inhibition at 10 µM in test [1] came out at 24%. Further, the Kd was 67 nM in test [2], greater than 10000 nM in test [3] and 435 nM in test [4].
Turning to `CN(C(=O)c1cccc2ccccc12)[C@H](CCNC(=O)c1ccccn1)Cc1ccc(F)cc1` [Example 28, Pyridine-2-carboxylic acid {(8)-4-(4-fluoro-phenyl)-3-[methyl-(naphthalene-1-carbonyl)-amino]-butyl}-amide], the Kd amounted to 28 nM in test [1], 4 nM in test [2], 579 nM in test [3] and 371 nM in test [4].
The like results for `CN(C(=O)c1cccc2[nH]ccc12)[C@H](CCNC(=O)c1nc2ccccc2n1C)Cc1ccccc1` [Example 3, 1-Methyl-1H-benzoimidazole-2-carboxylic acid {(S)-3-[(1H-indole-4-carbonyl)-methyl-amino]-4-phenyl-butyl}-amide] were, in that order, 48 nM, 3 nM, 17 nM and 10 nM.
